Source: US20070009438A1, “Method for diagnosing diabetes type 2 using standardized mixed meal and calculated index values” (DiaMedica Inc., priority 2003, published 2007)

Test: rapid insulin sensitivity test (RIST) in human volunteers before and after a standardized test meal
Assay type: in vivo
Conditions: 50 mU/kg insulin bolus i.v., average from 5 subjects
Procedure: Human volunteers were fasted overnight and submitted to a RIST. A stable glycemic baseline level was established by determining three consecutive stable venous glucose concentrations obtained at 5-minute intervals. […] Arterialized venous glucose concentrations were determined at 2-minute intervals and a variable glucose infusion pump was adjusted to maintain a constant blood glucose level. After completion of the first RIST index, a standardized meal consisting of a wheat-based biscuit containing 50 grams of carbohydrate was consumed within a 10-minute period. Venous glucose measurements were determined at 5-minute intervals until a new stable baseline was obtained whereupon a second RIST was carried out.
In FIG. 6, the difference between the results is plotted and is attributed to HISS action. […] Thus, the test meal provided a sufficient feeding signal to allow HISS release.

insulin
RIST index (glucose disposal in response to the insulin bolus) (human subjects after test meal (wheat-based biscuit, 50 grams of carbohydrate)): 502 mg/kg | RIST index (glucose disposal in response to the insulin bolus) (human subjects fasted overnight): 180 mg/kg
